In experiment [1] the test system is A549. In words: Cytotoxicity against human A549 cells after 4 days under glucose-starved conditions by MTT assay. It is filed as functional, cell-based. To be noted: A549, 96 h. Background: Formazan colour is commonly taken as a measure of viable cells.
In experiment [2] the test system is A549. In words: Cytotoxicity against human A549 cells after 4 days under normal conditions by MTT assay. It is filed as cell-based. The following applies: A549, 96 h.

Consider `COc1cc(C[C@H]2C(=O)OC[C@@H]2Cc2ccc(OC)c(OC)c2)ccc1Nc1ccc([N+](=O)[O-])cc1`, for which the IC50 – broadly, the concentration that gives 50% inhibition – in experiment [1] was 22.1 µM; in experiment [2] it was over 50 µM.
The matching figures for `CCC(=O)Nc1ccc(C[C@H]2C(=O)OC[C@@H]2Cc2ccc(OC)c(OC)c2)cc1OC`: over 50 µM and over 50 µM.
In the case of `COc1cc(C[C@H]2C(=O)OC[C@@H]2Cc2ccc(OC)c(OC)c2)ccc1Nc1ccccc1`, the IC50 in experiment [1] and in experiment [2] was over 50 µM each time.
With `COc1cc(C[C@H]2C(=O)OC[C@@H]2Cc2ccc(OC)c(OC)c2)ccc1NCc1ccccc1`, the IC50 in experiment [1] and in experiment [2] was over 50 µM throughout.
In the case of `COc1cc(C[C@H]2C(=O)OC[C@@H]2Cc2ccc(OC)c(OC)c2)ccc1O` [ARCTIGENIN], the IC50 in experiment [1] was 6.57 µM; in experiment [2], over 50 µM.
In the case of `COc1cc(C[C@H]2C(=O)OC[C@@H]2Cc2ccc(OC)c(OC)c2)ccc1N`, the IC50 in experiment [1] was 2.85 µM; in experiment [2], over 50 µM.
The matching figures for `COc1cccc(C[C@H]2C(=O)OC[C@@H]2Cc2ccc(OC)c(OC)c2)c1`: over 50 µM and over 50 µM.
The matching figures for `COc1ccc(Nc2ccc(C[C@H]3C(=O)OC[C@@H]3Cc3ccc(OC)c(OC)c3)cc2OC)cc1`: over 50 µM and over 50 µM.
In the case of `COc1cc(C[C@H]2C(=O)OC[C@@H]2Cc2ccc(OC)c(OC)c2)ccc1Nc1ccc(F)cc1`, the IC50 in experiment [1] and in experiment [2] was over 50 µM each time.
`COc1cc(C[C@H]2C(=O)OC[C@@H]2Cc2ccc(OC)c(OC)c2)ccc1NC(=O)Cc1ccccc1`: the IC50 in experiment [1] and in experiment [2] was over 50 µM in each case.
As for `COc1cc(C[C@H]2C(=O)OC[C@@H]2Cc2ccc(OC)c(OC)c2)ccc1NC(=O)c1ccccc1`, the IC50 in experiment [1] and in experiment [2] was over 50 µM each time.
`COc1cc(C[C@H]2C(=O)OC[C@@H]2Cc2ccc(OC)c(OC)c2)ccc1NC(C)=O`: the IC50 in experiment [1] and in experiment [2] was over 50 µM throughout.

The values are drawn from ChEMBL document CHEMBL3351731, “Synthesis and cytotoxicity evaluation of 4-amino-4-dehydroxylarctigenin derivatives in glucose-starved A549 tumor cells” (Bioorg Med Chem Lett, 2015).
